# Results as given in US20240122922A1, “Methods Of Treating Cancer With Transmembrane Protein 16F (TMEM16F) Inhibitors” (Institute For Cancer Research d/b/a The Research Institute …, priority 2022, published 2024).
# “Also recorded” adds a separate entry of the source.
# Key:
# [1] = system: KPCN349 cells co-cultured with CAFs; assay: Trogocytosis assay in vitro by flow cytometry (CAF membrane uptake by PDAC cells); type: cell-based, murine; conditions: 100 nM, CAFs pre-treated 2 hours and maintained in co-culture, vs vehicle, p<0.05
# Method: To label cellular membranes, pairs of lipophilic fluorescent dyes were used according to the manufacturer's instructions in the following combinations: 1) adherent CAFs were stained 1 μM PKH67 (Sigma-Aldrich), Panc-1 were stained in suspension with 10 μM CellTracker™ orange CMTMR (Thermo Fisher Scientific); 2) CAFs labeled with 0.5 μM BODIPY-cholesterol (Topfluor Cholesterol, #DO-016545, Avanti Polar Lipids) dissolved in 0.1 mM methyl-b-cyclodextrin (#C4555, Sigma) with 2 μM cholesterol (#C8667, Sigma-Aldrich) in MEM media at 37° C. for 30 minutes in suspension; murine or human (Panc-1) PDAC cells were stained in suspension with CPD670 (#65-0840-85, Thermo Fisher Scientific). After labeling, CAFs were co-incubated for indicated time intervals with PDAC cells in 12-well culture plates at ratio of 2:1 in half DMEM media. Co-cultures of CAFs and PDAC cells for 3 minutes on ice were used as negative controls. In experiments assessing the effect of extracellular calcium on trogocytoisis, cells were co-cultured in Phosphate Buffered Saline (PBS) containing calcium and magnesium (D8662, Sigma-Aldrich) or in PBS without calcium and magnesium (D8537, Sigma-Aldrich). After co-cultures, cells were collected and pelleted by centrifugation (5 minutes, 1500 rpm), resuspended in 10% formalin (Sigma) for 10 minutes at RT, washed and re-suspended in PBS/1% BSA. Trogocytosis was measured as the acquisition of CAF-specific fluorescence in PDAC cells by flow cytometry on MACSQuant® VYB Flow Cytometer (Miltenyi Biotec) or FACScan analyzer (BD Biosciences). Analysis of dual staining was done using FlowJo software (10.8.1, BD Biosciences). Live cells were gated based on FSC/SSC parameters, then single cells were gated based on SSC-A/SSC-H.
# For interference with trogocytosis, CAFs were pre-treated prior to co-cultures for 2 hours with recombinant label-free 100 nM Annexin-V (#ab157342, Abcam) or 100 nM Zn-DPA (Molecular Targeting Technologies) and subsequently maintained in co-cultures at the same concentrations.
# [2] = system: KPC3 syngeneic pancreatic tumor grafts; assay: Treatment of orthotopic syngeneic KPC3 pancreatic tumors with oral ANO6 inhibitors; type: in vivo, C57Bl/6J mice; conditions: oral gavage 5 days/week for 3 weeks; niclosamide 150 mg/kg, clofazimine 50 mg/kg; vs vehicle, p<0.001
# Method: (§1) Syngeneic 5×10^5 KPC3 cells were orthotopically injected to the tail of pancreas of anesthetized C57Bl/6J mice. Treatment with ANO6 inhibitors niclosamide or clofazimine commenced on 2 days post-implantation: niclosamide (150 mg/kg of mouse body weight, Cayman #10649), clofazimine (50 mg/kg, MedChem Express), or corn oil (50 mg/kg, Sigma #C8267) as vehicle were given by oral gavages 5 days/week for 3 weeks. Mice were kept under defined-flora pathogen-free conditions. Mice of both genders, equally distributed, were used for the experiments.
# DsRed-tagged KPC3 tumors = assay: In vivo fluorescent LDL (BODIPY-cholesterol) imaging by multiphoton microscopy; design: species or system mice
# Method: as §1
Molecule,uptake of BODIPY-labeled CAF membranes by KPCN349 cells [1],uptake of BODIPY-labeled CAF membranes by KPCN349 cells ([1]; listed as bis-Zn-dipicolylamine),weights of orthotopic syngeneic pancreatic tumors [2],"accumulation of intratumoral vesicles containing BODIPY-cholesterol (DsRed-tagged KPC3 tumors; 19 hours post injection, niclosamide vs vehicle)","accumulation of BODIPY-cholesterol from intravenously administered LDL in DsRed-tagged KPC3 cancer cells (intratumoral to peri-tumoral fluorescence) (DsRed-tagged KPC3 tumors; niclosamide 150 mg/kg/day, 10, 16 and 19 hours post injection, vehicle tumors showed 6-fold enrichment at 16 hours)"
"[Zn].c1ccc(CNCc2ccccn2)nc1 [Zn-DPA, zinc-dipicolylamine]",significantly reduced the uptake,antagonizes uptake,,,
CC(C)/N=c1\cc2n(-c3ccc(Cl)cc3)c3ccccc3nc-2cc1Nc1ccc(Cl)cc1 [clofazimine],,,significant reduction of tumor weights,,
O=C(Nc1ccc([N+](=O)[O-])cc1Cl)c1cc(Cl)ccc1O [niclosamide],,,significant reduction of tumor weights,dramatically reduced,suppressed accumulation
"annexin V: recombinant label-free Annexin-V (#ab157342, Abcam) masking cell surface phosphatidylserine (protein, UniProt P08758 2-320, looked up) Annexin A5: AQVLRGTVTDFPGFDERADAETLRKAMKGLGTDEESILTLLTSRSNAQRQEISAAFKTLFGRDLLDDLKSELTGKFEKLIVALMKPSRLYDAYELKHALKGAGTNEKVLTEIIASRTPEELRAIKQVYEEEYGSSLEDDVVGDTSGYYQRMLVVLLQANRDPDAGIDEAQVEQDAQALFQAGELKWGTDEEKFITIFGTRSVSHLRKVFDKYMTISGFQIEETIDRETSGNLEQLLLAVVKSIRSIPAYLAETLYYAMKGAGTDDHTLIRVMVSRSEIDLFNIRKEFRKNFATSLYSMIKGDTSGDYKKALLLLCGEDD",significantly reduced the uptake; also recorded: antagonizes uptake,,,,
